Assays:
[1] = tested on: hTR in the context of the native telomerase enzyme; test: RNase H cleavage of hTR directed by antisense DNA oligonucleotides in native telomerase; type: biochemical, human; conditions: for RNaseH Digestion?: antisense DNA oligo, cleavage of hTR in native RNP, Table II; for ability to direct RNase H cleavage of hTR: native telomerase enzyme
Source text: The regions were identified in two ways. The first way involved contacting samples containing human telomerase with a variety of DNA polynucleotides having sequences complementary to the sequence of hTR under hybridization conditions, contacting the telomerase with RNase H, which cleaves the RNA strand of an RNA-DNA duplex, and determining whether hTR had been cleaved. […] The second way involved oligo-decoration. […] Other accessible areas of hTR can be identified by similar assays using antisense polynucleotides whose sequences are substantially complementary to a nucleotide sequence selected from hTR.
A set of 17 contiguous antisense DNA oligonucleotides (30 mers) were tested for their ability to direct RNase H cleavage of hTR in the context of the native telomerase enzyme. […] Antisense oligonucleotides "14", "16", and "21" (see Table II) were tested as potential inhibitors of human telomerase ("hTase").
The accessible regions were "fine mapped" by using shorter antisense oligonucleotides to direct RNase H cleavage of hTR.

telomerase [2] = test: Capture of active telomerase on streptavidin beads by biotinylated 2'OMe antisense analogs; type: binding, human; conditions: for Capture? (2'OMe): biotinylated 2'OMe antisense RNA analog of the oligo, streptavidin beads; for Capture? (2'OMe) / Activity on beads: Table II; for capture of active telomerase on streptavidin beads: biotinylated 2'OMe analogs; for Activity on beads: telomerase activity on beads after capture by 2'OMe analog
Source text: On the bases of the antisense data, biotinylated 2'OMe antisense RNA analogs were designed for affinity purification of telomerase. The goal of the antisense affinity approach was to design ligands that afforded good purification and yield, while keeping the enzyme intact (i.e., active). Several 2'OMe ligands met our criteria (Table II, FIG. 1). […] These analogs were further refined via the synthesis of second generation antisense affinity ligands, which were designed to allow release of active telomerase (reversible ligands). Currently, our affinity scheme consists of two reversible antisense ligands, which are employed in series, and target two different regions of hTR. The first ligand is a disulfide version of 14ab which allows release of telomerase via dithiothreitol treatment. The second ligand contains the 21ab1 antisense sequence and plus a tail of "nonsense" sequence. hTR is released from the antisense ligand by a displacement DNA oligonucleotide, which is complementary to the entire length of the 21ab1 antisense affinity ligand.

[3] = tested on: human telomerase ("hTase"); test: Inhibition of human telomerase, standard primer elongation assay; type: biochemical; conditions: preincubation of partially purified nuclear or cytoplasmic extract with oligonucleotide
[4] = tested on: telomerase ribonucleoprotein; test: Oligodecoration: native gel mobility shift with labeled 2'-O-methyl antisense polynucleotides; type: binding, human; conditions: radioactively labeled 2'-O-methyl antisense polynucleotide; altered mobility on native gel
Description: Oligodecoration was used to further identify accessible regions of the telomerase ribonucleoprotein. Radioactively labeled 2 0-methyl antisense polynucleotides were prepared and exposed to the telomerase ribonucleoprotein. The sample was incubated to allow the polynucleotide to bind to telomerase. Then the sample was run on a native gel. […] RP2 has the sequence CGG GCC AGC AGC TGA CA (SEQ ID NO:14).

telomerase [5] = test: Capture of telomerase on an affinity matrix; type: binding, human

## 5' CATTTTTTGTTTGCTCTAGA 3' (antisense CATTTTTTGTTTGCTCTAGA; chemistry not given here) [20/21, antisense 20 mer]
[1]
  RNaseH Digestion?: yes

## 5' CCAACTCTTCGCGGTGGCAG 3' (antisense CCAACTCTTCGCGGTGGCAG; chemistry not given here) [Oligo 16bc, antisense 20 mer of the "16" region]
[1]
  RNaseH Digestion?: yes
  ability to direct RNase H cleavage of hTR: directed RNase H cleavage
Telomerase [2]
  Capture? (2'OMe): yes

## 5' CCTGCGGCCTGAAACGGTGA 3' (antisense CCTGCGGCCTGAAACGGTGA; chemistry not given here) [Oligo 14bc, antisense 20 mer of the "14" region]
[1]
  RNaseH Digestion?: no

## 5' CGT TCC TCT TCC 3' (antisense CGTTCCTCTTCC; biotinylated 2'OMe, further chemistry not given here) [Oligo 14d, antisense 12 mer of the "14" region; biotinylated 2'OMe analog used for capture]
[1]
  RNaseH Digestion?: yes
  ability to direct RNase H cleavage of hTR: directed RNase H cleavage
Telomerase [2]
  capture of active telomerase on streptavidin beads: "captured" active telomerase
  Capture? (2'OMe): yes
  Activity on beads: yes

## 5' CGT TCC TCT TCC TGC G9C CT 3' [Oligo 14ab]
[1]
  RNaseH Digestion?: yes
  ability to direct RNase H cleavage of hTR: directed RNase H cleavage
Telomerase [2]
  capture of active telomerase on streptavidin beads: "captured" active telomerase
  Capture? (2'OMe): yes
  Activity on beads: yes

## 5' CGTTCCTCTTCCTGCGGCCTGAAACGGTGA 3' (antisense CGTTCCTCTTCCTGCGGCCTGAAACGGTGA; chemistry not given here) [Oligo 14, antisense DNA 30 mer against hTR nucleotides 350-380]
[1]
  RNaseH Digestion?: yes
  ability to direct RNase H cleavage of hTR: directed efficient cleavage of hTR
[3]
  inhibition of hTase activity: did not significantly affect hTase activity

## 5' CTGACAGAGCCCAACTCTTC 3' (antisense CTGACAGAGCCCAACTCTTC; chemistry not given here) [Oligo 16ab, antisense 20 mer of the "16" region]
[1]
  RNaseH Digestion?: yes
  ability to direct RNase H cleavage of hTR: directed RNase H cleavage
Telomerase [2]
  Capture? (2'OMe): yes
  Activity on beads: no

## 5' CTGACAGAGCCCAACTCTTCGCGGTGGCAG 3' (antisense CTGACAGAGCCCAACTCTTCGCGGTGGCAG; chemistry not given here) [Oligo 16, antisense DNA 30 mer against hTR nucleotides 290-319]
[1]
  RNaseH Digestion?: yes
  ability to direct RNase H cleavage of hTR: directed efficient cleavage of hTR
[3]
  inhibition of hTase activity: did not significantly affect hTase activity

## 5' GCT CTA G 3' [Oligo 21ab1]
[1]
  RNaseH Digestion?: yes
Telomerase [2]
  capture of active telomerase on streptavidin beads: "captured" active telomerase
  Capture? (2'OMe): yes
  Activity on beads: yes

## 5' GCT CTA GAA TG 3' (antisense GCTCTAGAATG; chemistry not given here) [Oligo 21ab2, shorter antisense oligo of the "21" region]
[1]
  RNaseH Digestion?: yes
Telomerase [2]
  Capture? (2'OMe): yes

## 5' GCT CTA GAA TGA ACG 3' (antisense GCTCTAGAATGAACG; chemistry not given here) [Oligo 21ab3, shorter antisense oligo of the "21" region]
[1]
  RNaseH Digestion?: yes

## 5' GCT CTA GAA TGA ACG GTG G 3' (antisense GCTCTAGAATGAACGGTGG; chemistry not given here) [Oligo 21ab, shorter antisense oligo of the "21" region]
[1]
  RNaseH Digestion?: yes
Telomerase [2]
  Capture? (2'OMe): yes

## 5' GCTCTAGAATGAACGGTGGAAGGCGGCAGG 3' (antisense GCTCTAGAATGAACGGTGGAAGGCGGCAGG; chemistry not given here) [Oligo 21, antisense DNA 30 mer directed against nucleotides 137 to 166 of hTR]
[1]
  RNaseH Digestion?: yes
  ability to direct RNase H cleavage of hTR: directed efficient cleavage of hTR
[3]
  inhibition of hTase activity: potent inhibition of hTase

## CGG GCC AGC AGC TGA CA (antisense CGGGCCAGCAGCTGACA; 2'-O-methyl, further chemistry not given here) [RP2]
[4]
  binding to the telomerase ribonucleoprotein: found to bind
Telomerase [5]
  ability to capture telomerase on an affinity matrix: demonstrated an ability to capture telomerase

Reference: US5846723A, “Methods for detecting the RNA component of telomerase” (Geron Corporation, priority 1996, dated 1998)
